Data: patent publication US20220372040A1, “METTL3 MODULATORS” (Accent Therapeutics, Inc., priority 2020, published 2022)
pIC50: −log10 of the molar value. Counter-ions that a name gives are not always drawn. Like-named read-outs stand apart in the source and are kept apart here.

Tests used:
Type in all cases: biochemical
[1] = molecular target: PRMT5-MEP50 (Homo sapiens, UniProt O14744); experiment: PRMT5 assay (3H-SAM flashplate scintillation); conditions: PRMT5-MEP50 2.5 nM, histone H4 peptide 100 nM, 3H-SAM 250 nM, 60 min
Chain of PRMT5-MEP50 (O14744 whole entry): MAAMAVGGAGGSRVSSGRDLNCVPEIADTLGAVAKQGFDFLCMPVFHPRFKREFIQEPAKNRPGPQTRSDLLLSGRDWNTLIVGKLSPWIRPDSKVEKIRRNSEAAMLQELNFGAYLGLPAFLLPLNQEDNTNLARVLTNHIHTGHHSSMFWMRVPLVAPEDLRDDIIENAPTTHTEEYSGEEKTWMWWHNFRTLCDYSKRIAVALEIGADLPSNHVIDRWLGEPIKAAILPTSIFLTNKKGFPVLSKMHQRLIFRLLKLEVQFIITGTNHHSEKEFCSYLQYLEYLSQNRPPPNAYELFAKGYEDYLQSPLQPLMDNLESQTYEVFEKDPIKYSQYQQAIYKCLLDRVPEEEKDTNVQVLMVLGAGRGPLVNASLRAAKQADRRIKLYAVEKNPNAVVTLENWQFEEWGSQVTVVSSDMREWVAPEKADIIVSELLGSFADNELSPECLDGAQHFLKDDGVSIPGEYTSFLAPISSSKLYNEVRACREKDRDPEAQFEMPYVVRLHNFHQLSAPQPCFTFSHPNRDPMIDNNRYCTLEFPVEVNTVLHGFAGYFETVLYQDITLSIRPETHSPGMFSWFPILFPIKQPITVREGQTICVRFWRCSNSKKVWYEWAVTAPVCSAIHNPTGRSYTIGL
Chain of PRMT5-MEP50 (Q9BQA1 whole entry partner): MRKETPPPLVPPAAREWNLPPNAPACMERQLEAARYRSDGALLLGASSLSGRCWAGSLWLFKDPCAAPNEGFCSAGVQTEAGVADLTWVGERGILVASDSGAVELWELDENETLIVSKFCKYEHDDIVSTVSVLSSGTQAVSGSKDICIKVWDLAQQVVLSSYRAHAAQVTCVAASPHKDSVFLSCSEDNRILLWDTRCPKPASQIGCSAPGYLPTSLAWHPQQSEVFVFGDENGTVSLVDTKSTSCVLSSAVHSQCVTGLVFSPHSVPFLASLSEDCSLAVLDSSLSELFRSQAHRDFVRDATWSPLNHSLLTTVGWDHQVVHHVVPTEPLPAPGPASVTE
Protocol: Assays were performed in a 25 μl-volume in 384-well V-bottom polypropylene microplates (Greiner Bio-One, cat. No. 781280) at ambient temperature. Optimized 1× assay buffer was 20 mM Tris-HCl pH 8.0, 1 mM DTT, […]. For compound screening PRMT5-MEP50 (final concentration, f.c.=2.5 nM) was added using a Multidrop Combi (ThermoFisher Scientific, Waltham, Mass.) and preincubated for 5 min. Reactions were started by adding 3′ biotinylated histone H4 peptide acetylated on serine 1 (Ac-[…]-Biotin) (f.c.=100 nM) and 3H-SAM (f.c.=250 nM) substrates. Reactions proceeded for 60 minutes and were quenched with excess non-radioactive SAM (f.c.=15 μM). The reactions were then transferred to streptavidin-coated flashplates and incubated for 2 hours at 25° C. Following two washing cycles with 0.1% Tween-20, the plates were sealed and read on a TopCount (PerkinElmer, Waltham, Mass.) plate-based scintillation counter. For determination of kinetic parameters, reaction times were optimized so that measurements were taken during the initial velocity phase of the reaction.

[2] = molecular target: METTL1/WDR4 (Homo sapiens, UniProt Q9UBP6); experiment: METTL1 assay (3H-SAM flashplate scintillation)
Chain of METTL1/WDR4 (Q9UBP6 whole entry, species assumed): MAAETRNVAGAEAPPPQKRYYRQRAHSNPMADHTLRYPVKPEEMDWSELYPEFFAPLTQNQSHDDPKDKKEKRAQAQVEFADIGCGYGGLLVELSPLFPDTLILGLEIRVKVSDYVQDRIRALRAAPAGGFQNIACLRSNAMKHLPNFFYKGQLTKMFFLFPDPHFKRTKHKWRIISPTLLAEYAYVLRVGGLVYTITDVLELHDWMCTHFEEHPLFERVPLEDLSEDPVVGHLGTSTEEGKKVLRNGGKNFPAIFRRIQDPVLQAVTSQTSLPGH
Chain of METTL1/WDR4 (P57081 whole entry partner, species assumed): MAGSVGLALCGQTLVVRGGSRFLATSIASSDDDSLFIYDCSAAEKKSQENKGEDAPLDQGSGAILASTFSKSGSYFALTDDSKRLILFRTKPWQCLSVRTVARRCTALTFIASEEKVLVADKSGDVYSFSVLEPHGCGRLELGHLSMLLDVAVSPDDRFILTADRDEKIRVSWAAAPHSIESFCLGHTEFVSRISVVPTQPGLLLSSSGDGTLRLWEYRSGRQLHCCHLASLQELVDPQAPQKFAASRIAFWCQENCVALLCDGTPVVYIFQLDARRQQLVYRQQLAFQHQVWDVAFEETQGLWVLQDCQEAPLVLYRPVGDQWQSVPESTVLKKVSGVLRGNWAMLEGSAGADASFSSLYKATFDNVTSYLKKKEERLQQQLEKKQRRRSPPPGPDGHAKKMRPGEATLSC
Protocol: Assays were performed in a 25 μl-volume in 384-well V-bottom polypropylene microplates (Greiner Bio-One, cat. No. 781280) at ambient temperature. Optimized 1× assay buffer was 20 mM HEPES pH 7.5, 50 mM KCl, 250 μM MgCl2, 1 mM DTT, 0.01% Tween, 0.01% BSG, 0.004 U/μl RNAseOUT (cat. No. 10777019, ThermoFisher Scientific, Waltham, Mass.). For compound screening METTL1/WDR4 (final concentration, f.c.=6.25 nM) was added using a Multidrop Combi (ThermoFisher Scientific, Waltham, Mass.) and preincubated for 5 min. Reactions were started by adding 3′ biotinylated RNA ([…]-biotin) (f.c.=25 nM) and 3H-SAM (f.c.=60 nM) substrates. Reactions proceeded for 20 minutes and were quenched with excess non-radioactive SAM (f.c.=15 μM). The reactions were then transferred to streptavidin-coated flashplates and incubated for 2 hours at 25° C. Following two washing cycles with 0.1% Tween-20, the plates were sealed and read on a TopCount (PerkinElmer, Waltham, Mass.) plate-based scintillation counter. For determination of kinetic parameters, reaction times were optimized so that measurements were taken during the initial velocity phase of the reaction.

[3] = molecular target: METTL3/METTL14 (Homo sapiens, UniProt Q86U44); experiment: METTL3-14 standard enzyme assay (3H-SAM flashplate scintillation); conditions: METTL3/METTL14 2.5 nM, RNA 100 nM, 3H-SAM 100 nM, 30 min
Chain of METTL3/METTL14 (Q86U44 whole entry, species assumed): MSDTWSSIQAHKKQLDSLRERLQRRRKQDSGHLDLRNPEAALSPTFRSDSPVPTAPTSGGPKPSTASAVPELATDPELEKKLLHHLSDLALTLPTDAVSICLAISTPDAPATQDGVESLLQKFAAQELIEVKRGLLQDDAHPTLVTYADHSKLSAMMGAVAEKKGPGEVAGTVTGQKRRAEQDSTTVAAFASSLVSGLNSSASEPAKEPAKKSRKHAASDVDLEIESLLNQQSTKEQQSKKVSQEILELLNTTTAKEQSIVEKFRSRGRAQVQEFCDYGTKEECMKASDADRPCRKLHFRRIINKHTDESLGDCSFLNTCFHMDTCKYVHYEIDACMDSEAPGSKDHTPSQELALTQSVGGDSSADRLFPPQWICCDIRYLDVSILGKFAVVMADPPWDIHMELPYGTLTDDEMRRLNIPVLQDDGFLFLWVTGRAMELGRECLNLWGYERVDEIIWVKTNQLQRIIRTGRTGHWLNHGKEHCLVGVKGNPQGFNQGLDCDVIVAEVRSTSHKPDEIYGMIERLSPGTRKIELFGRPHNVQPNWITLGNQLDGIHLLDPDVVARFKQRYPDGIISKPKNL
Chain of METTL3/METTL14 (Q9HCE5 whole entry partner, species assumed): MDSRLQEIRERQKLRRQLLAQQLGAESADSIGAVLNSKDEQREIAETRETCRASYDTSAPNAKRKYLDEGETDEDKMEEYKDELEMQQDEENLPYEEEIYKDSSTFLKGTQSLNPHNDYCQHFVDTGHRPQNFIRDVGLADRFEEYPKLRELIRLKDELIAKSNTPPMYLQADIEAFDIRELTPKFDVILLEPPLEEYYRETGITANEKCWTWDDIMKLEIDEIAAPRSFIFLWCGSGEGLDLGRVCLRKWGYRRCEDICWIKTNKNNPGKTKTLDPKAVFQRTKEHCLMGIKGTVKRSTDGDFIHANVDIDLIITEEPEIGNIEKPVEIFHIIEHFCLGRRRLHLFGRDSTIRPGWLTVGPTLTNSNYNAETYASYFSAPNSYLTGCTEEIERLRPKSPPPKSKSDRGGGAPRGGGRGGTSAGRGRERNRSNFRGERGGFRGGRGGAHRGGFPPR
Protocol: METTL3-14 Standard Enzyme Assay
Assays were performed in a 25 μl-volume in 384-well V-bottom polypropylene microplates (Greiner Bio-One, cat. No. 781280) at ambient temperature. Optimized 1× assay buffer was 20 mM HEPES pH 7.5, 50 mM KCl, 250 μM MgCl2, 1 mM DTT, 0.01% Tween, 0.01% BSG, 0.004 U/μl RNAseOUT (cat. No. 10777019, ThermoFisher Scientific, Waltham, Mass.). For compound screening METTL3/METTL14 (final concentration, f.c.=2.5 nM) was added using a Multidrop Combi (ThermoFisher Scientific, Waltham, Mass.) and preincubated for 5 min. Reactions were started by adding 3′ biotinylated RNA (UCUGGACUAAA-biotin) (f.c.=100 nM) and 3H-SAM (f.c.=100 nM) substrates. Reactions proceeded for 30 minutes and were quenched with excess non-radioactive SAM (f.c.=15 μM). The reactions were then transferred to streptavidin-coated flashplates and incubated for 2 hours at 25° C. Following two washing cycles with 0.1% Tween-20, the plates were sealed and read on a TopCount (PerkinElmer, Waltham, Mass.) plate-based scintillation counter. For determination of kinetic parameters, reaction times were optimized so that measurements were taken during the initial velocity phase of the reaction.

[4] = METTL1/WDR4 6.25 nM, RNA 25 nM, 3H-SAM 60 nM, 20 min, read-out: METTL1 IC50

## CNc1ccc2ccc(OCc3cc(-n4ccc5c(N)ncnc54)n[nH]3)cc2n1 [Compound I-2]
[1]
  pIC50: < 6.00
[2]
  pIC50: < 6.00

## CNc1ccc2ccc(OCc3cncc(-n4cc(C5CCC(F)(F)CC5)c5c(N)ncnc54)c3)cc2n1 [Compound I-3]
[3]
  pIC50: 7.00 to 8.00
[1]
  pIC50: < 6.00
[2]; [4]
  pIC50: < 6.00

## CNc1ccc2ccc(OC(C)c3cncc(-n4ccc5c(N)ncnc54)c3)cc2n1 (centres unmarked) [Compound I-4]
[1]
  pIC50: < 6.00
[2]; [4]
  pIC50: < 6.00

## CNc1ccc2cc(F)c(OCc3cncc(-n4cc(C5CCCC5)c5c(N)ncnc54)c3)cc2n1 [Compound I-5]
[1]
  pIC50: < 6.00
[2]; [4]
  pIC50: < 6.00

## CCc1nc(N)c2ccn(-c3cncc(COc4ccc5ccc(NC)nc5c4)c3)c2n1 [Compound I-8]
[3]
  pIC50: > 8.00
[1]
  pIC50: < 6.00
[2]; [4]
  pIC50: < 6.00

## CNc1ccc2ccc(OCc3cc(-n4cc(Cl)c5c(N)ncnc54)cnc3NC)cc2n1 [Compound I-13]
[3]
  pIC50: 7.00 to 8.00
[1]
  pIC50: < 6.00
[2]; [4]
  pIC50: < 6.00

## CNc1ccc2ccc(OCc3nc(-n4ccc5c(N)ncnc54)cs3)cc2n1 [Compound I-19]
[3]
  pIC50: 7.00 to 8.00
[1]
  pIC50: < 6.00
[2]
  pIC50: < 6.00

## CNc1ccc2ccc(OCc3cc(C(N)=O)cc(-n4cc(Cl)c5c(N)ncnc54)c3)cc2n1 [Compound I-21]
[3]
  pIC50: 6.00 to 7.00
[1]
  pIC50: < 6.00
[2]; [4]
  pIC50: < 6.00

## CNc1ccc2ccc(COc3cncc(-n4ccc5c(N)ncnc54)c3)cc2n1 [Compound I-22, 7-{[(5-{4-amino-7H-pyrrolo[2,3-d]pyrimidin-7-yl}pyridin-3-yl)oxy]methyl}-N-methylquinolin-2-amine]
[3]
  pIC50: 7.00 to 8.00
[1]
  pIC50: < 6.00
[2]; [4]
  pIC50: < 6.00

## Nc1ncnc2c1c(Cl)cn2-c1csc(COc2ccc3ccc(N4CCCC4)nc3c2)n1 [Compound I-23, 5-chloro-7-(2-(((2-(pyrrolidin-1-yl)quinolin-7-yl)oxy)methyl)thiazol-4-yl)-7H-pyrrolo[2,3-d]pyrimidin-4-amine hydrochloride]
[3]
  pIC50: < 6.00
[1]
  pIC50: < 6.00
[2]
  pIC50: < 6.00

## CNc1ccc2ccc(OCc3ncc(-n4cc(Cl)c5c(N)ncnc54)s3)cc2n1 [Compound I-24]
[3]
  pIC50: < 6.00
[1]
  pIC50: < 6.00
[2]
  pIC50: < 6.00

## CNc1ccc2ccc(OCc3nc(-n4cc(Cl)c5c(N)ncnc54)cs3)cc2n1 [Compound I-37]
[3]
  pIC50: 7.00 to 8.00
[1]
  pIC50: < 6.00
[2]; [4]
  pIC50: < 6.00

## CCc1cc(N2CCC2)nc2cc(F)cc(OCc3cncc(-n4cc(C5CCCO5)c5c(N)ncnc54)c3)c12 (centres unmarked) [Compound I-198]
[3]
  pIC50: < 6.00
[1]
  pIC50: < 6.00

## CCc1cc(N2CCC2)nc2cc(OCc3cncc(-n4cc(C5CCCO5)c5c(N)ncnc54)c3)cc(F)c12 (centres unmarked) [Compound I-199]
[3]
  pIC50: < 6.00
[1]
  pIC50: < 6.00

## Cn1ccc(-c2cn(-c3cncc(COc4ccc(CN5CCC(CO)CC5)c(N)c4)c3)c3ncnc(N)c23)n1 [Compound I-200]
[3]
  pIC50: 6.00 to 7.00
[1]
  pIC50: < 6.00

## Cn1ccc(-c2cn(-c3cncc(COc4ccc5ccc(N6CC7(COC7)C6)nc5c4)c3)c3ncnc(N)c23)n1 [Compound I-201]
[3]
  pIC50: 6.00 to 7.00
[1]
  pIC50: < 6.00

## CC(=O)NC1CN(c2ccc3ccc(OCc4cncc(-n5cc(-c6ccn(C)n6)c6c(N)ncnc65)c4)cc3n2)C1 [Compound I-202]
[3]
  pIC50: 7.00 to 8.00
[1]
  pIC50: < 6.00

## Cn1ccc(-c2cn(-c3cncc(COc4ccc5ccc(N6CC7(CC7)C6)nc5c4)c3)c3ncnc(N)c23)n1 [Compound I-203]
[3]
  pIC50: 7.00 to 8.00
[1]
  pIC50: < 6.00

## CN1CCN(c2ccc3ccc(OCc4cncc(-n5cc(-c6ccn(C)n6)c6c(N)ncnc65)c4)cc3n2)CC1 [Compound I-204]
[3]
  pIC50: 6.00 to 7.00
[1]
  pIC50: < 6.00

## Nc1ncnc2c1c(C1CCCO1)cn2-c1cncc(COc2cnc3ccc(N4CCC4)nc3c2)c1 (centres unmarked) [Compound I-207]
[3]
  pIC50: < 6.00
[1]
  pIC50: < 6.00

## Cn1ccc(-c2cn(-c3cncc(COc4cc(F)c5ccc(N6CCC6)nc5c4)c3)c3ncnc(N)c23)n1 [Compound I-208]
[3]
  pIC50: 7.00 to 8.00
[1]
  pIC50: < 6.00

## CN(CCO)C(=O)c1ccc(OCc2cncc(-n3cc(-c4ccn(C)n4)c4c(N)ncnc43)c2)cc1N [Compound I-209]
[3]
  pIC50: < 6.00
[1]
  pIC50: < 6.00

## Cn1ccc(-c2cn(-c3cncc(COc4ccc(CN5CCOCC5)c(N)c4)c3)c3ncnc(N)c23)n1 [Compound I-210]
[3]
  pIC50: 6.00 to 7.00
[1]
  pIC50: < 6.00

## Cn1ccc(-c2cn(-c3cncc(COc4ccc(-c5ncco5)c(N)c4)c3)c3ncnc(N)c23)n1 [Compound I-211]
[3]
  pIC50: < 6.00
[1]
  pIC50: < 6.00

## Cn1ccc(-c2cn(-c3cncc(COc4ccc5ccc(N6CCOCC6=O)nc5c4)c3)c3ncnc(N)c23)n1 [Compound I-214]
[3]
  pIC50: < 6.00
[1]
  pIC50: < 6.00

## Nc1cc(OCc2cncc(-n3ccc4c(N)ncnc43)c2)ccc1C(=O)N1CCNCC1 [Compound I-215]
[3]
  pIC50: < 6.00
[1]
  pIC50: < 6.00

## CN(C)CCNC(=O)c1ccc(OCc2cncc(-n3ccc4c(N)ncnc43)c2)cc1N [Compound I-216]
[3]
  pIC50: < 6.00
[1]
  pIC50: < 6.00

## CN(C)CCNC(=O)c1ccc(OCc2cncc(-n3cc(Br)c4c(N)ncnc43)c2)cc1N [Compound I-218]
[3]
  pIC50: < 6.00
[1]
  pIC50: < 6.00

## Cn1ccc(-c2cn(-c3cncc(CSc4ccc5ccc(N6CCC6)nc5c4)c3)c3ncnc(N)c23)n1 [Compound I-219, 7-[5-({[2-(azetidin-1-yl)quinolin-7-yl]sulfanyl}methyl)pyridin-3-yl]-5-(1-methyl-1H-pyrazol-3-yl)-7H-pyrrolo[2,3-d]pyrimidin-4-amine]
[3]
  pIC50: > 8.00
[1]
  pIC50: < 6.00

## Cn1ccc(-c2cn(-c3cncc(CS(=O)(=O)c4ccc5ccc(N6CCC6)nc5c4)c3)c3ncnc(N)c23)n1 [Compound I-220, 7-[5-({[2-(azetidin-1-yl)quinolin-7-yl]sulfonyl}methyl)pyridin-3-yl]-5-(1-methyl-1H-pyrazol-3-yl)-7H-pyrrolo[2,3-d]pyrimidin-4-amine]
[3]
  pIC50: < 6.00
[1]
  pIC50: < 6.00

## Cn1ccc(-c2cn(-c3cncc(C[S+]([O-])c4ccc5ccc(N6CCC6)nc5c4)c3)c3ncnc(N)c23)n1 (centres unmarked) [Compound I-221, 7-[5-({[2-(azetidin-1-yl)quinolin-7-yl]sulfinyl}methyl)pyridin-3-yl]-5-(1-methyl-1H-pyrazol-3-yl)-7H-pyrrolo[2,3-d]pyrimidin-4-amine]
[3]
  pIC50: < 6.00
[1]
  pIC50: 6.00 to 7.00

## Cn1ccc(-c2cn(-c3cncc(COC(=O)Nc4cccc(Br)n4)c3)c3ncnc(N)c23)n1 [Compound I-223]
[3]
  pIC50: < 6.00
[1]
  pIC50: < 6.00

## Cn1ccc(-c2cn(-c3cncc(COC(=O)Nc4cccc(N5CCC5)n4)c3)c3ncnc(N)c23)n1 [Compound I-224, {5-[4-amino-5-(1-methyl-1H-pyrazol-3-yl)-7H-pyrrolo[2,3-d]pyrimidin-7-yl]pyridin-3-yl}methyl N-[6-(azetidin-1-yl)pyridin-2-yl]carbamate]
[3]
  pIC50: < 6.00
[1]
  pIC50: < 6.00

## Cn1ccc(-c2cn(-c3cncc(CNC(=O)Nc4cccc(N5CCC5)n4)c3)c3ncnc(N)c23)n1 [Compound I-225, 1-({5-[4-amino-5-(1-methyl-1H-pyrazol-3-yl)-7H-pyrrolo[2,3-d]pyrimidin-7-yl]pyridin-3-yl}methyl)-3-[6-(azetidin-1-yl)pyridin-2-yl]urea]
[3]
  pIC50: < 6.00
[1]
  pIC50: < 6.00
